{"source": "patent US7129218B2", "about": "“Use of rhamnolipids in wound healing, treatment and prevention of gum disease and periodontal regeneration” (Paradigm Biomedical, Inc., priority 1999, dated 2006)", "key": {"[1]": {"system": "neonatal human keratinocyte cells", "assay": "Caspase detection in neonatal human keratinocyte cells in KGM (serum free) medium", "format": "cell-based", "description": "The procedure for caspase detection in neonatal human keratinocyte cells in KGM* (serum free) medium treated With BAC-3 using fluorescence spectroscopy\nThe same procedure as described for fibroblasts except different growth conditions were used (NHK97-45 passage #3 cell line was used). Neonatal human keratinocytes were without the presence of serum (KGM medium). Prior to treatment with BAC-3, passage #3 cells were grown in KGM medium for 7 days with one medium change (until 80% confluent). For preparing positive apoptosis control, plates were irradiated with UVB light for 66 seconds (792 J/m^2).\nCells, at 80% confluence, were administered BAC-3 in KGM at 50 μg/ml, 10 μg/ml, 1 μg/ml and 0.5 μg/ml concentrations. Medium was replaced every two days over the period of 6 days. On day 3, positive apoptosis control was established by irradiating cells with 792 J/m^2 UVB light and incubating them with 1 μg/ml FAS antibody. BAC-3 treated and control cells were harvested and cell densities were adjusted to 1×10^6 cells per ml with FM. 300 μl cell aliquots were labeled with FAM-VAD-FMK, fluorescent-tagged, irreversible caspase inhibitor. Unlabelled inhibitor was washed away with buffer and 100 μl aliquots were read at 485 nm excitation and 535 nm emission with fluorescence detector. Error bars indicate standard deviations."}, "[2]": {"system": "burn wounds", "assay": "Burn wounds, 15% body surface, treatment started 50 days after burning (rats)", "format": "in vivo, Sprague-Dawley rats", "settings": "15% burn, open wounds after 50 days placebo; 1% BAC-3 ointment, tapering schedule", "source_text": "The wound surface areas tested were of two different sizes. One size to 7% of the body surface, which enables one to compare the rate of wound healing with different percentage of BAC-3 and the other size to 15% of the body surface, which is a sufficient size so that healing could not occur by contraction alone. On the other hand, the total wound surface area should not cause major systematic problems. The latter can be concluded from undisturbed weight gain of the animals. The standard animal burn was performed by techniques and device described by Walker. The burning devices were prepared using a model device ordered from U.S. Army Surgical Research Unit, Experimental Surgery, Army Medical Center, Fort Sam Houston, Tex. 78234. The devices had apertures which enabled exposure of 7% and 15% of the total rat skin surface. The surface of the skin was measured for every animal using Mech's formula: A=kW^2/3; A=surface area in cm^2; W=body weight in grams; k=10.\nMethod of burning. Each animal was anesthetized with sodium pentobarbital administered i/p (5 mg/25 g). (Producer: Veterinary Laboratory Inc. Lenexa, Kans.). The hair over the dorsum was clipped with animal clippers. The animal was placed supine in the burning device and the extremities were tied; the malleable retractor was placed over the animal and secured snugly with plastic straps. […]"}, "[3]": {"system": "venous ulcer", "assay": "Open wound healing in a patient with incurable venous ulcer", "format": "in vivo, human", "settings": "1% BAC-3 ointment twice daily during 41 days", "description": "The BAC-3 rhamnolipid was tested in the case of open wound healing, in a patient suffering around ten years from incurable venous ulcer. On the left leg, the patient had very thick layers of collagen with fibrotic lesions. […] Moreover, after treatment was finished, not only the collagen, but also the fibrotic lesions had disappeared as well. One year after the treatment, the treated skin lesions on the left leg appear normal, and all skin collagen and fibrotic layers had disappeared."}}, "data": [{"smiles": "CCCCCCCC(CC(=O)O)OC(=O)CC(CCCCCCC)OC1OC(C)C(O)C(O)C1OC1OC(C)C(O)C(O)C1O", "note": "[BAC-3, (α-L-rhamnopyranosyl-(1,2)-α-L-rhamnopyranosyl)-3-hyroxydecanoyl-3-hydroxydecanoic acid]", "values": [{"measurement": "optimal concentration for inducing apoptosis (caspase activity peak)", "setting": "[1]; keratinocytes in KGM serum free, 6 days, tested 50, 10, 1 and 0.5 μg/ml", "value": 1, "unit": "µg/mL"}, {"measurement": "mechanism of cell death at higher concentrations", "setting": "[1]; keratinocytes in KGM, higher concentrations of BAC-3 (detergent effect)", "value": "cell necrosis"}, {"measurement": "time to whole epithelization in all animals", "setting": "[2]", "value": 30, "unit": "days"}, {"measurement": "collagen and fibrotic lesions after treatment", "setting": "[3]; after treatment and one year later", "value": "disappeared"}, {"measurement": "patient's condition", "setting": "[3]; one patient, venous ulcer, left leg", "value": "significantly improved"}]}]}
